Results as given in PubChem BioAssay (NCI).
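GI50 is the concentration that inhibits growth by half. TGI: total growth inhibition.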

Experiments:
Test in all cases: DTP human tumour cell line panel, 384-well format
HOP-62 NSCLC = test system: HOP-62 NSCLC
CCRF-CEM leukemia = test system: CCRF-CEM leukemia
SK-OV-3 ovarian = test system: SK-OV-3 ovarian
HL-60(TB) leukemia = test system: HL-60(TB) leukemia
M14 melanoma = test system: M14 melanoma
SK-MEL-5 melanoma = test system: SK-MEL-5 melanoma
UACC-257 melanoma = test system: UACC-257 melanoma
ACHN renal = test system: ACHN renal
HCT-15 colon = test system: HCT-15 colon
SF-295 CNS = test system: SF-295 CNS
RXF 393 renal = test system: RXF 393 renal
NCI-H460 NSCLC = test system: NCI-H460 NSCLC
MCF7 breast = test system: MCF7 breast
HCC-2998 colon = test system: HCC-2998 colon
TK-10 renal = test system: TK-10 renal
A498 renal = test system: A498 renal
UO-31 renal = test system: UO-31 renal
SF-268 CNS = test system: SF-268 CNS
SR leukemia = test system: SR leukemia
NCI-H23 lung = test system: NCI-H23 lung
DU-145 prostate = test system: DU-145 prostate
SK-MEL-28 melanoma = test system: SK-MEL-28 melanoma
OVCAR-8 ovarian = test system: OVCAR-8 ovarian
NCI-H322M lung = test system: NCI-H322M lung
OVCAR-5 ovarian = test system: OVCAR-5 ovarian
IGROV1 ovarian = test system: IGROV1 ovarian
BT-549 breast = test system: BT-549 breast
NCI-H522 lung = test system: NCI-H522 lung
SNB-75 CNS = test system: SNB-75 CNS
NCI/ADR-RES ovarian = test system: NCI/ADR-RES ovarian
PC-3 prostate = test system: PC-3 prostate
HT29 colon = test system: HT29 colon
OVCAR-3 ovarian = test system: OVCAR-3 ovarian
SN12C renal = test system: SN12C renal
MDA-MB-231 breast = test system: MDA-MB-231 breast
NCI-H226 lung = test system: NCI-H226 lung
HS 578T breast = test system: HS 578T breast
T-47D breast = test system: T-47D breast
MOLT-4 leukemia = test system: MOLT-4 leukemia
SNB-19 CNS = test system: SNB-19 CNS
MDA-MB-468 breast = test system: MDA-MB-468 breast
SW-620 colon = test system: SW-620 colon
CAKI-1 renal = test system: CAKI-1 renal
786-0 renal = test system: 786-0 renal
LOX IMVI melanoma = test system: LOX IMVI melanoma
HOP-92 NSCLC = test system: HOP-92 NSCLC
MDA-MB-435 melanoma = test system: MDA-MB-435 melanoma
RPMI-8226 leukemia = test system: RPMI-8226 leukemia
SF-539 CNS = test system: SF-539 CNS
COLO 205 colon = test system: COLO 205 colon
KM12 colon = test system: KM12 colon
A549 NSCLC = test system: A549 NSCLC
UACC-62 melanoma = test system: UACC-62 melanoma
OVCAR-4 ovarian = test system: OVCAR-4 ovarian
MALME-3M melanoma = test system: MALME-3M melanoma
K-562 leukemia = test system: K-562 leukemia
EKVX NSCLC = test system: EKVX NSCLC

Structure (SMILES): O=C(CC1(O)C(=O)Nc2c(Cl)ccc(Cl)c21)c1ccc(C2CC2)cc1 (centres undefined)
- GI50 (HOP-62 NSCLC): 199 nM
- TGI (HOP-62 NSCLC): 13400 nM
- GI50 (CCRF-CEM leukemia): 130 nM
- TGI (CCRF-CEM leukemia): 262 nM
- GI50 (SK-OV-3 ovarian): 238 nM
- TGI (SK-OV-3 ovarian): 14100 nM
- GI50 (HL-60(TB) leukemia): 37.7 nM
- TGI (HL-60(TB) leukemia): 120 nM
- GI50 (M14 melanoma): 54 nM
- TGI (M14 melanoma): 266 nM
- GI50 (SK-MEL-5 melanoma): 142 nM
- TGI (SK-MEL-5 melanoma): 414 nM
- GI50 (UACC-257 melanoma): 280 nM
- TGI (UACC-257 melanoma): 2340 nM
- GI50 (ACHN renal): 743 nM
- TGI (ACHN renal): 17200 nM
- GI50 (HCT-15 colon): 51.9 nM
- TGI (HCT-15 colon): 2060 nM
- GI50 (SF-295 CNS): 112 nM
- TGI (SF-295 CNS): 853 nM
- GI50 (RXF 393 renal): 155 nM
- TGI (RXF 393 renal): 793 nM
- GI50 (NCI-H460 NSCLC): 225 nM
- TGI (NCI-H460 NSCLC): 611 nM
- GI50 (MCF7 breast): 111 nM
- TGI (MCF7 breast): 13500 nM
- GI50 (HCC-2998 colon): 277 nM
- TGI (HCC-2998 colon): 4610 nM
- GI50 (TK-10 renal): 10400 nM
- TGI (TK-10 renal): 25200 nM
- GI50 (A498 renal): 226 nM
- TGI (A498 renal): 10700 nM
- GI50 (UO-31 renal): 10600 nM
- TGI (UO-31 renal): 23000 nM
- GI50 (SF-268 CNS): 387 nM
- TGI (SF-268 CNS): 11200 nM
- GI50 (SR leukemia): 16.9 nM
- TGI (SR leukemia): 33.7 nM
- GI50 (NCI-H23 lung): 192 nM
- TGI (NCI-H23 lung): 759 nM
- GI50 (DU-145 prostate): 338 nM
- TGI (DU-145 prostate): 2490 nM
- GI50 (SK-MEL-28 melanoma): 221 nM
- TGI (SK-MEL-28 melanoma): 18900 nM
- GI50 (OVCAR-8 ovarian): 257 nM
- TGI (OVCAR-8 ovarian): 1230 nM
- GI50 (NCI-H322M lung): 845 nM
- TGI (NCI-H322M lung): 18000 nM
- GI50 (OVCAR-5 ovarian): 900 nM
- TGI (OVCAR-5 ovarian): 17700 nM
- GI50 (IGROV1 ovarian): 882 nM
- TGI (IGROV1 ovarian): 17000 nM
- GI50 (BT-549 breast): 49 nM
- TGI (BT-549 breast): 2730 nM
- GI50 (NCI-H522 lung): 45.1 nM
- TGI (NCI-H522 lung): 179 nM
- GI50 (SNB-75 CNS): 96.7 nM
- TGI (SNB-75 CNS): 3170 nM
- GI50 (NCI/ADR-RES ovarian): 69.2 nM
- TGI (NCI/ADR-RES ovarian): 276 nM
- GI50 (PC-3 prostate): 372 nM
- TGI (PC-3 prostate): 14400 nM
- GI50 (HT29 colon): 50.5 nM
- TGI (HT29 colon): 248 nM
- GI50 (OVCAR-3 ovarian): 73.1 nM
- TGI (OVCAR-3 ovarian): 286 nM
- GI50 (SN12C renal): 575 nM
- TGI (SN12C renal): 20100 nM
- GI50 (MDA-MB-231 breast): 182 nM
- TGI (MDA-MB-231 breast): 16300 nM
- GI50 (NCI-H226 lung): 732 nM
- TGI (NCI-H226 lung): 14200 nM
- GI50 (HS 578T breast): 119 nM
- TGI (HS 578T breast): 284 nM
- GI50 (T-47D breast): 323 nM
- TGI (T-47D breast): 18200 nM
- GI50 (MOLT-4 leukemia): 47.3 nM
- TGI (MOLT-4 leukemia): 135 nM
- GI50 (SNB-19 CNS): 528 nM
- TGI (SNB-19 CNS): 15300 nM
- GI50 (MDA-MB-468 breast): 30.2 nM
- TGI (MDA-MB-468 breast): 94.4 nM
- GI50 (SW-620 colon): 45.7 nM
- TGI (SW-620 colon): 15500 nM
- GI50 (CAKI-1 renal): 173 nM
- TGI (CAKI-1 renal): 15200 nM
- GI50 ([…]-0 renal): 377 nM
- TGI (786-0 renal): 12000 nM
- GI50 (LOX IMVI melanoma): 434 nM
- TGI (LOX IMVI melanoma): 4650 nM
- GI50 (HOP-92 NSCLC): 210 nM
- TGI (HOP-92 NSCLC): 11000 nM
- GI50 (MDA-MB-435 melanoma): 24.5 nM
- TGI (MDA-MB-435 melanoma): 59.6 nM
- GI50 (RPMI-8226 leukemia): 133 nM
- TGI (RPMI-8226 leukemia): 271 nM
- GI50 (SF-539 CNS): 206 nM
- TGI (SF-539 CNS): 907 nM
- GI50 (COLO 205 colon): 124 nM
- TGI (COLO 205 colon): 448 nM
- GI50 (KM12 colon): 74.7 nM
- TGI (KM12 colon): 2770 nM
- GI50 (A549 NSCLC): 546 nM
- TGI (A549 NSCLC): 13800 nM
- GI50 (UACC-62 melanoma): 38.9 nM
- TGI (UACC-62 melanoma): 5040 nM
- GI50 (OVCAR-4 ovarian): 369 nM
- TGI (OVCAR-4 ovarian): 7590 nM
- GI50 (MALME-3M melanoma): 61.5 nM
- TGI (MALME-3M melanoma): 10300 nM
- GI50 (K-562 leukemia): 46.2 nM
- TGI (K-562 leukemia): 211 nM
- GI50 (EKVX NSCLC): 385 nM
- TGI (EKVX NSCLC): 16900 nM
